Source: paper PMC10397409, “The action of physiological and synthetic steroids on the calcium channel CatSper in human sperm” (Frontiers in Cell and Developmental Biology, 2023)
Where two headings read alike, the source gives them in different places.

Legend:
[1] = biological target: T1, CatSper (Homo sapiens, UniProt Q7RTX7+Q86XQ3+Q8NEC5+Q96P56); set-up: method as in Carlson et al., 2022b; conditions: ref Carlson et al., 2022b; read-out: IC50 inhibiting P4-induced response; cited from earlier work
T1 construct: Motile spermatozoa were selected by a ‘swim-up’ procedure; endogenous in cells; host or cells: motile human spermatozoa (swim-up) from healthy donors

[2] = biological target: T1, CatSper; test: Steroid-induced increase in [Ca2+]i in human sperm (Fluo-4 HTS assay, screen 1 activators); type: cell-based; conditions: for Emax: read-out: Max amplitude (%) (± SD)
Protocol: (§1) Briefly, motile spermatozoa were selected by swim-up and labeled with the fluorescent calcium indicator Fluo-4 a.m. to image changes in [Ca^2+]i. After centrifugation to remove excess dye, Fluo-4 AM loaded cells were distributed in a 384-wells plate to obtain ∼125,000 cells/well. After measuring basal fluorescence, a first injection of compounds was performed in order to evaluate their effect on [Ca^2+]i alone. This first screen is therefore considered as a screen to search for ‘activators’. Fluorescence was recorded for 12 min during which sperm cells were continuously exposed to compounds. P4 or PGE1 were then added in the same wells to evaluate whether the tested compounds can reduce the ligand-induced activation of CatSper. This second screen was therefore considered to be a search for CatSper ‘inhibitors’.
Human semen samples were collected from healthy donors by masturbation after a recommended sexual abstinence period of minimum 2 days. Semen samples were allowed to liquefy at 37°C for 15–30 min. […] Motile sperm were allowed to swim at 37°C for 1 hour. The supernatant was collected in 15 mL Falcon tubes and washed twice by centrifugation at 700 x g for 20 min. Sperm were supplemented with 3 mg/mL HSA.
20 μL of cells (corresponding to ∼125,000 cells) loaded with Fluo-4 a.m. were dispensed in a 384-wells plate (Corning, NY, United States) to allow fluorescence measurement. The dye was excited at 480 nm, and emission was recorded at 530 nm. The change in [Ca^2+]i was assessed simultaneously in all wells using a Functional Drug Screening System (FDSS/μCELL) (Hamamatsu Phototonics K.K., Yokohama, Japan) at 37°C. Basal fluorescence was first measured for 30 s. […] P4 and PGE1 were tested at a near-saturating concentration in the HTS in order to evaluate a potential additive or synergistic effect induced by the compounds. […] For alkalization-induced Ca^2+ measurement, NH4Cl was used as a positive control at a final concentration of 10 mM. […] The Prestwick library was tested in technical duplicate. Ca^2+ response curves were normalized using the following formula F−F0/F0×100 , where F 0 is the average of the basal fluorescence prior to the addition of the compound of interest and F corresponds to the fluorescence value at each time point. The ∆F/F0 of the vehicle control (DMSO) was subtracted from all the other values to adjust for dilution and pipetting artifacts. The values of all compounds were normalized to their respective controls.
Data are shown as mean ± standard deviation (SD) with “n” referring to the number of independent experiments performed using sperm samples from ≥3 different donors. Statistical analysis and fitting of dose-response relations were performed using GraphPad Prism 8.1.1 (Prism, La Jolla, United States). To generate sigmoidal curves, the concentrations were converted to their respective log values, and the data were normalized using the following formula: 100⋅x/Fmax , where Fmax is the maximum value of the positive control. A four-parameter Hill equation with a variable Hill coefficient was fitted to generate the EC02, EC50, and IC50. Statistical significance between control and treated conditions was evaluated using a one-way analysis of variance (ANOVA), followed by Dunnett´s test. A p-value <0.05 was considered significant.

[3] = biological target: T1, CatSper; test: Inhibition of P4-induced Ca2+ influx in human sperm (screen 2 inhibitors); type: cell-based; conditions: for Max P4 inhibition (%) (± SD): 3 independent experiments
Protocol: as §1
(§2) Human semen samples were collected from healthy donors by masturbation after a recommended sexual abstinence period of minimum 2 days. Semen samples were allowed to liquefy at 37°C for 15–30 min. Motile spermatozoa were selected by a ‘swim-up’ procedure as previously described ([Strünker et al., 2011]). Briefly, 1 mL of semen was deposited in a 45°-inclined 50 mL Falcon tube with 4 mL of Human Tubular Fluid (HTF) medium containing: 93.8 mM NaCl, 4.7 mM KCl, 0.2 mM MgSO4, 0.37 mM KH2PO4, 2.04 mM CaCl2, 20.98 mM HEPES, 2.78 mM glucose, 21.4 mM Na-lactate, 4 mM NaHCO3, 0.33 mM Na-pyruvate, and the pH was adjusted to 7.35. Motile sperm were allowed to swim at 37°C for 1 hour. The supernatant was collected in 15 mL Falcon tubes and washed twice by centrifugation at 700 x g for 20 min. Sperm were supplemented with 3 mg/mL HSA. Written informed consent was obtained from all donors prior to donation and approved by the Cantonal Ethics Committee of the State of Geneva (CCER #14-147).
(§3) Cells were loaded with the fluorescent Ca^2+ indicator Fluo-4 AM at a final concentration of 2.5 µM for 30 min at 37°C. Excess dye was washed via centrifugation at 700 x g for 20 min and sperm were resuspended in HTF medium to obtain a final concentration of 6.25 x 10^6 cells/mL. 20 μL of cells (corresponding to ∼125,000 cells) loaded with Fluo-4 a.m. were dispensed in a 384-wells plate (Corning, NY, United States) to allow fluorescence measurement. The dye was excited at 480 nm, and emission was recorded at 530 nm. The change in [Ca^2+]i was assessed simultaneously in all wells using a Functional Drug Screening System (FDSS/μCELL) (Hamamatsu Phototonics K.K., Yokohama, Japan) at 37°C. Basal fluorescence was first measured for 30 s. […] P4 and PGE1 were tested at a near-saturating concentration in the HTS in order to evaluate a potential additive or synergistic effect induced by the compounds. Non-specific CatSper inhibitor MDL 12330A was used as a negative control at final concentration of 20 µM while DMSO was used as a vehicle control. For alkalization-induced Ca^2+ measurement, NH4Cl was used as a positive control at a final concentration of 10 mM. Fluorescence was recorded for a total of 16.5 min: 30 s before injection, 12 min after the first injection of the tested compounds, and 4 min after the second injection of either P4 or PGE1. The Prestwick library was tested in technical duplicate. Ca^2+ response curves were normalized using the following formula F−F0/F0×100 , where F 0 is the average of the basal fluorescence prior to the addition of the compound of interest and F corresponds to the fluorescence value at each time point. The ∆F/F0 of the vehicle control (DMSO) was subtracted from all the other values to adjust for dilution and pipetting artifacts. The values of all compounds were normalized to their respective controls.

[4] = biological target: T1, CatSper; test: Inhibition of PGE1-induced Ca2+ influx in human sperm (screen 2 inhibitors); type: cell-based
Protocol: as §1, §2, §3

[5] = tested on: human sperm; test: Sperm penetration in viscous media (modified Kremer test); type: cell-based; conditions: steroids 10 µM, P4 5 µM, 1 h, 1% methylcellulose
Protocol: The ability of sperm to penetrate in viscous media similar in viscosity to that found in the female reproductive tract was assessed using the modified Kremer test, as previously described ([Rahban et al., 2021]). Briefly, swim-up recovered and capacitated sperm cells at 3 x 10^6/mL were incubated in the absence (DMSO) or presence of steroids (10 µM), or P4 (5 µM) as a positive control for 1 h at 37°C. A glass capillary (0.2 × 4.0 × 50 mm, CM scientific, UK) was filled with 1% (w/v) methylcellulose (MC, 4000 centipoises cP) prepared with HTF media supplemented with 3 mg/mL HSA, respective compounds (10 µM), P4 (5 µM), or DMSO. The glass capillary tube was then sealed on one end with wax (Vitrex, UK) and added to the sperm cells on the open end. Sperm penetration was assessed after 1 h of incubation at 37°C by counting sperm at 1 cm using a microscope with a ×10 objective.

[6] = maximal amplitude of steroid-induced [Ca2+]i increase, relative to P4, 3 independent experiments
[7] = pooled from 3 independent experiments, read-out: Mean EC50 µM (±SD)
[8] = P4-induced response, pooled from 3 independent experiments, read-out: Mean IC50 (P4) µM (±SD)
[9] = PGE1-induced response, pooled from 3 independent experiments, read-out: Mean IC50 (PGE1) µM (±SD)

In the case of `CC(=O)O[C@]1(C(C)=O)CC[C@H]2[C@@H]3C[C@H](C)C4=CC(=O)CC[C@]4(C)[C@H]3CC[C@@]21C` [medroxyprogesterone acetate], the IC50 [1] is given as 6.6 µM.

In the case of `C[C@]12CCC(=O)C=C1CC[C@@H]1[C@@H]2[C@@H](O)C[C@]2(C=O)[C@@H](C(=O)CO)CC[C@@H]12` [aldosterone], the IC50 [1] is given as 33.1 µM.

With `C[C@]12CC[C@@H]3c4ccc(OS(=O)(=O)O)cc4CC[C@H]3[C@@H]1CCC2=O` [Estropipate] the “effective concentrations as low as (dose-dependent increase in [Ca2+]i)” value [2] was 10 nM, the EC50 ([2]; increase in [Ca2+]i, dose-response 90 µM to 0.3 nM, read-out: EC50 (±SD)) was 0.161 µM and the Emax [2, 6] was 106%. For the same molecule, the EC50 [2, 7] was 0.159 µM, the “increase in [Ca2+]i (in words)” value ([2]; steroids 10 µM) was “highest increase in [Ca^2+]i” and the “Max P4 inhibition (%) (± SD)” value [3] was 90 (±10) %. For the same molecule, the IC50 [3, 8] was 0.28 µM, the IC50 ([3]; inhibition of P4-induced Ca2+ response, dose-response 90 µM to 0.3 nM, read-out: IC50 (±SD)) was 0.288 µM and the IC50 [4, 9] was 0.282 µM. For the same molecule, the “number of sperm penetrating viscous medium at 1 cm” value [5] was “significant increase in cell number”.

For `CC(=O)O[C@H]1CC[C@@]2(C)C(=CC[C@@H]3[C@@H]2CC[C@]2(C)C(=O)CC[C@@H]32)C1` [Dehydroisoandosterone 3-acetate (DHEA), Dehydroisoandosterone 3-acetate], the “EC02 compared with reported maximum concentration in blood serum” value [2] was “EC02 below the reported maximum concentration found in blood serum”, the EC50 ([2]; EC50 (±SD), increase in [Ca2+]i, dose-response 90 µM to 0.3 nM) was 0.593 µM and the EC50 ([2]; Mean EC50 µM (±SD), pooled from 3 independent experiments) was 0.584 µM. For the same molecule, the Emax [2] was 77%, the “Max P4 inhibition (%) (± SD)” value [3] was 82 (±6) % and the IC50 ([3]; Mean IC50 (P4) µM (±SD), P4-induced response, pooled from 3 independent experiments) was 1.69 µM. For the same molecule, the IC50 [4] was 3.7 µM.

For `C#C[C@]1(O)CC[C@H]2[C@@H]3CCC4=CC(=O)CC[C@@H]4[C@H]3CC[C@@]21CC` [levonorgestrel], the IC50 [1] is listed as 32.3 µM.

With `C[C@]12CCC(=O)C=C1C=C[C@@H]1[C@@H]2CC[C@@]2(C)[C@H]1CC[C@@]2(O)CCC(=O)[O-].[K+]` [canrenoic acid potassium salt] the “Max amplitude (%) (± SD)” value [2, 6] was 34 (±2) %, the EC50 [2, 7] was 23.4 µM and the “Max P4 inhibition (%) (± SD)” value [3] was 27 (±10) %. It also gave an IC50 [3, 8] of 23.2 µM and an IC50 [4, 9] of 16.3 µM.
